These results are taken from patent US8906852B2 (MethylGene Inc., priority 2010, dated 2014).

The structures appear in SMILES notation. Structures can show the parent of a compound that is named as a salt.

T1 sequence (P35968 806-1356): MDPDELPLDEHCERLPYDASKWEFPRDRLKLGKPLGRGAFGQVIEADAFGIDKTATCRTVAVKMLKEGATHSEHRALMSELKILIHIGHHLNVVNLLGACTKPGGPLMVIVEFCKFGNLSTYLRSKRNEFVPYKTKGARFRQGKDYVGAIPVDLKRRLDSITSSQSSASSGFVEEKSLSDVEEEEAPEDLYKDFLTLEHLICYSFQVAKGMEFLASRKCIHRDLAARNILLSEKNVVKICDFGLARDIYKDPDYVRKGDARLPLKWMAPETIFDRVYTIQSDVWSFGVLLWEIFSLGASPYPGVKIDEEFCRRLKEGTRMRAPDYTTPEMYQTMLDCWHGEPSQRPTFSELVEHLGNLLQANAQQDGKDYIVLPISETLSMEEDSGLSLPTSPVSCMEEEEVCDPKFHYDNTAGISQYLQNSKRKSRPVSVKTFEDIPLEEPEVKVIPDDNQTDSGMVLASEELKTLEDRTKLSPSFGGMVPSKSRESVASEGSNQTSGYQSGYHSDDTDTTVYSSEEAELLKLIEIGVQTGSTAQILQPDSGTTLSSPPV

The test addresses T1, VEGFR/KDR (Homo sapiens, UniProt P35968).
T1 construct: made in house; host or cells: Sf9 cells (Spodoptera frugiperda), baculovirus
The test can be described thus: VEGFR/KDR kinase inhibition, DELFIA assay. The format is biochemical. As to conditions: ATP 0.6 uM (2x Km), enzyme 5 nM. In outline:
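DELFIA time-resolved fluorescence readout using Europium-tagged anti-phosphotyrosine antibody after EDTA stop. Kinase reaction on plate-bound poly(Glu4,Tyr) ran 10-30 min at 30° C with 5 nM enzyme and 0.6 uM ATP (2× Km), following 4 min on-ice pre-incubation with compound; IC50 over a concentration range.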
As for `COC(=O)CC(C)N1CCN(Cc2ccc(-c3cc4nccc(Oc5ccc(NC(=O)NC6CC6)cc5F)c4s3)nc2)CC1` (centres unmarked) [Compound 508, methyl 3-(4-((6-(7-(4-(3-cyclopropylureido)-2-fluorophenoxy)thieno[3,2-b]pyridin-2-yl)pyridin-3-yl)methyl)piperazin-1-yl)butanoate], the IC50 (usually the point on the concentration scale where inhibition reaches its midpoint) is below 50 nM.
Consider `COCCN(Cc1cnc(-c2cc3nccc(Oc4ccc(NC(=O)NC(C)C)cc4F)c3s2)n1C)C(C)=O` [Compound 117-A, N-((2-(7-(2-fluoro-4-(3-isopropylureido)phenoxy)thieno[3,2-b]-pyridin-2-yl)-1-methyl-1H-imidazol-5-yl)methyl)-N-(2-methoxyethyl)acetamide], for which the IC50 is 50 to 100 nM.
Consider `COCCN(Cc1ccc(-c2cc3nccc(Oc4ccc(NC(=O)NC5CC5)cc4F)c3s2)nc1)C(=O)[C@@H](N)C(C)(C)C` [Compound 88, (S)-2-amino-N-((6-(7-(4-(3-cyclopropylureido)-2-fluorophenoxy)thieno[3,2-b]pyridin-2-yl)pyridin-3-yl)methyl)-N-(2-methoxyethyl)-3,3-dimethylbutanamide], for which the IC50 is below 50 nM.
The compound `O=C(O)CCN1CCN(Cc2ccc(-c3cc4nccc(Oc5ccc(NC(=O)NC6CC6)c(F)c5F)c4s3)nc2)CC1` [Compound 172, 3-(4-((6-(7-(4-(3-cyclopropylureido)-2,3-difluorophenoxy)thieno-[3,2-b]pyridin-2-yl)pyridin-3-yl)methyl)piperazin-1-yl)propanoic acid] displayed a concentration for half-maximal inhibition (IC50) below 50 nM.
For the compound `CN1CCN(C(=O)C2CCCN(Cc3ccc(-c4cc5nccc(Oc6ccc(NC(=O)NC7CC7)cc6F)c5s4)nc3)C2)CC1` (centres unmarked) [Compound 493, 1-cyclopropyl-3-(3-fluoro-4-(2-(5-((3-(4-methylpiperazine-1-carbonyl)piperidin-1-yl)methyl)pyridin-2-yl)thieno[3,2-b]pyridin-7-yloxy)phenyl)urea], the IC50 is below 50 nM.
The same measure for `COCCNCc1ccc(-c2cc3nccc(Oc4ccc(NC(=S)NC5CC5)cc4F)c3s2)nc1` [Compound 502, 1-Cyclopropyl-3-(3-fluoro-4-(2-(5-((2-methoxyethylamino)methyl)pyridin-2-yl)thieno[3,2-b]pyridin-7-yloxy)phenyl)thiourea]: below 50 nM.
`Cn1ccc(NCc2ccc(-c3cc4nccc(Oc5ccc(NC(=O)NC6CC6)cc5F)c4s3)nc2)n1` [Compound 334, 1-Cyclopropyl-3-(3-fluoro-4-(2-(5-((1-methyl-1H-pyrazol-3-ylamino)methyl)pyridin-2-yl)thieno[3,2-b]pyridin-7-yloxy)phenyl)urea]: the IC50 is below 50 nM.
In turn, `O=C(O)CNC(=O)NC1CN(Cc2ccc(-c3cc4nccc(Oc5ccc(NC(=O)NC6CC6)cc5F)c4s3)nc2)C1` [Compound 428] showed an IC50 below 50 nM.
`O=C(Nc1ccc(Oc2ccnc3cc(C(=O)N4CCCC(C(=O)O)C4)sc23)c(F)c1)NC1CC1` (centres unmarked) [Compound 466, 1-(7-(4-(3-cyclopropylureido)-2-fluorophenoxy)thieno[3,2-b]pyridine-2-carbonyl)piperidine-3-carboxylic acid] showed a concentration for half-maximal inhibition (IC50) below 50 nM.
The compound `O=C(Nc1ccc(Oc2ccnc3cc(-c4ccc(CN5CCCN(C(=O)CO)CC5)cn4)sc23)c(F)c1)NC1CC1` [Compound 526, 1-cyclopropyl-3-(3-fluoro-4-(2-(5-((4-(2-hydroxyacetyl)-1,4-diazepan-1-yl)methyl)pyridin-2-yl)thieno[3,2-b]-pyridin-7-yloxy)phenyl)urea] came in with an IC50 below 50 nM.
`CC(C)(C)OC(=O)N1CCN(C(=O)Cn2cc(-c3cc4nccc(Oc5ccc(NC(=O)NC6CC6)cc5F)c4s3)nn2)CC1` [Compound 388] came in with an IC50 below 50 nM.
With `CNC(=O)N(C)C1CCN(Cc2ccc(-c3cc4nccc(Oc5ccc(NC(=O)NC6CC6)cc5F)c4s3)nc2)CC1` [Compound 410], the IC50 is below 50 nM.
The compound `O=C(O)CCCCCN1CCN(Cc2ccc(-c3cc4nccc(Oc5ccc(NC(=O)NC6CC6)cc5F)c4s3)nc2)CC1` [Compound 520, 6-(4-((6-(7-(4-(3-cyclopropylureido)-2-fluorophenoxy)thieno[3,2-b]pyridin-2-yl)pyridin-3-yl)methyl)piperazin-1-yl)hexanoic acid] showed an IC50 below 50 nM.
The same measure for `CN1CCN(C(=O)NC2CCN(Cc3ccc(-c4cc5nccc(Oc6ccc(NC(=O)NC7CC7)cc6F)c5s4)nc3)CC2)CC1` [Compound 357, N-(1-((6-(7-(4-(3-Cyclopropylureido)-2-fluorophenoxy)thieno[3,2-b]pyridin-2-yl)pyridin-3-yl)methyl)piperidin-4-yl)-4-methylpiperazine-1-carboxamide]: below 50 nM.
Consider `NC(=O)CCN1CCN(Cc2ccc(-c3cc4nccc(Oc5ccc(NC(=O)NC6CC6)cc5F)c4s3)nc2)CC1` [Compound 82, 3-(4-((6-(7-(4-(3-cyclopropylureido)-2-fIuorophenoxy)-thieno[3,2-b]pyridin-2-yl)pyridin-3-yl)methyl)piperazin-l-yl)propanamide], for which the IC50 is below 50 nM.
With `COCCN(CCOC)Cc1ccc(-c2cc3nccc(Oc4ccc(NC(=O)NC5CC5)cc4F)c3s2)nc1` [Compound 50, 1-(4-(2-(5-((bis(2-methoxyethyl)amino)methyl)pyridin-2-yl)thieno[3,2-b]-pyridin-7-yloxy)-3-fluorophenyl)-3-cyclopropylurea], the IC50 was below 50 nM.
With `CN(C)CCNC(=O)[C@@H]1CCCN1Cc1ccc(-c2cc3nccc(Oc4ccc(NC(=O)NC5CC5)cc4F)c3s2)nc1` [Compound 487, (S)-1-((6-(7-(4-(3-cyclopropylureido)-2-fluorophenoxy)thieno[3,2-6]pyridin-2-yl)pyridin-3-yl)methyl)-N-(2-(dimethylamino)ethyl) pyrrolidine-2-carboxamide] the figure was below 50 nM; with `COCCN(CCn1cc(-c2cc3nccc(Oc4ccc(NC(=O)NC5CC5)cc4F)c3s2)cn1)C(C)=O` [Compound 254, N-(2-(4-(7-(4-(3-cyclopropylureido)-2-fluorophenoxy)thieno[3,2-b]pyridine-2-yl)-1H-pyrazol-1-yl)ethyl)-N-(2-methoxyethyl)acetamide], below 50 nM; with `CN1CCN(C(=O)C2CCN(Cc3ccc(-c4cc5nccc(Oc6ccc(NC(=O)NC7CC7)cc6F)c5s4)nc3)CC2)CC1` [Compound 482, 1-cyclopropyl-3-(3-fluoro-4-(2-(5-((4-(4-methylpiperazine-1-carbonyl)piperidin-1-yl)methyl)pyridin-2-yl)thieno[3,2-b]pyridin-7-yloxy)phenyl)urea], below 50 nM.
For `CN1CCN(C(=O)[C@@H]2CCCN2Cc2ccc(-c3cc4nccc(Oc5ccc(NC(=O)NC6CC6)cc5F)c4s3)nc2)CC1` [Compound 488, (S)-1-cyclopropyl-3-(3-fluoro-4-(2-(5-((2-(4-methylpiperazine-1-carbonyl)pyrrolidin-1-yl)methyl)pyridin-2-yl)thieno[3,2-b]pyridin-7-yloxy)phenyl)urea], the IC50 is below 50 nM.
As to `CN1CCN(CCNC(=O)c2ccc(-c3cc4nccc(Oc5ccc(NC(=O)NC6CC6)cc5F)c4s3)nc2)CC1` [Compound 233, 6-(7-(4-(3-cyclopropylureido)-2-fluorophenoxy)thieno[3,2-b]pyridin-2-yl)-N-(2-(4-methylpiperazin-1-yl)ethyl)nicotinamide formate salt], the concentration for half-maximal inhibition (IC50) was below 50 nM.
`CC(=O)N[C@@H]1CCN(C(=O)c2cc3nccc(Oc4ccc(NC(=O)NC5CC5)cc4F)c3s2)C1` [Compound 453]: the IC50 was below 50 nM.
`CC(C)(CN1CCN(C(=O)c2ccc(-c3cc4nccc(Oc5ccc(NC(=O)NC6CC6)cc5F)c4s3)nc2)CC1)C(=O)O` [Compound 576] showed a half-maximal inhibitory concentration (IC50) below 50 nM.
`COCCN(Cc1cnc(-c2cc3nccc(Oc4ccc(NC(=O)NC5CC5)cc4F)c3s2)n1C)C(C)=O` [Compound 212, N-((2-(7-(4-(3-cyclopropylureido)-2-fluorophenoxy)thieno[3,2-b]pyridin-2-yl)-1-methyl-1H-imidazol-5-yl)methyl)-N-(2-methoxyethyl)acetamide]: the IC50 was below 50 nM.
`COCCNCc1ccc(-c2cc3nccc(Oc4ccc(NC(CC(=O)Nc5ccc(F)cc5)C(F)(F)F)cc4F)c3s2)nc1` (centres unmarked) [Compound 20, 4,4,4-trifluoro-3-(3-fluoro-4-(2-(5-((2-methoxyethylamino)methy)pyridin-2-yl)thieno[3,2-b]pyridin-7-yloxy)phenylamino)-N-(4-fluorophenyl)butanamide] displayed a half-maximal inhibitory concentration (IC50) below 50 nM.
For `CCNC(=O)N(CCOC)Cc1cnc(-c2cc3nccc(Oc4ccc(NC(=O)NC(C)C)cc4F)c3s2)n1C` [Compound 161-A, 1-((2-(7-(4-isopropylaminocarbonylamino-2-fluorophenoxy)thieno[3,2-b]pyridin-2-yl)-1-methyl-1H-imidazol-5-yl)methyl)-3-ethyl-1-(2-methoxyethyl)urea], the IC50 was below 50 nM.
In the case of `CN(C)CCCn1cc(-c2cc3nccc(Oc4ccc(NC(=O)NC5CC5)cc4F)c3s2)nn1` [Compound 384], the IC50 was below 50 nM.
The same measure for `Cn1c(C(=O)NCCCN2CCOCC2)cnc1-c1cc2nccc(Oc3ccc(NC(=O)NC4CC4)cc3F)c2s1` [Compound 224]: below 50 nM.
Take `CN(C)[C@@H]1CCN(C(=O)c2ccc(-c3cc4nccc(Oc5ccc(NC(=O)NC6CC6)cc5F)c4s3)nc2)C1` [Compound 227, (R)-1-cyclopropyl-3-(4-(2-(5-(3-(dimethylamino)pyrrolidine-1-carbonyl)pyridin-2-yl)thieno[3,2-b]pyridin-7-yloxy)-3-fluorophenyl)urea]: the half-inhibitory concentration (IC50) was below 50 nM.
In turn, `O=C(Nc1ccc(Oc2ccnc3cc(-c4ccc(CN5CC6CNCC6C5)cn4)sc23)c(F)c1)NC1CC1` (centres unmarked) [Compound 311, 1-cyclopropyl-3-(3-fluoro-4-(2-(5-((hexahydropyrrolo[3,4-c]pyrrol-2(1H)-yl)methyl)pyridin-2-yl)thieno[3,2-b]pyridin-7-yloxy)phenyl)urea] gave an IC50 below 50 nM.
In turn, `CN(CCO)Cc1ccc(-c2cc3nccc(Oc4ccc(NC(=O)NC5CC5)cc4F)c3s2)nc1` [Compound 50-A] displayed a half-maximal inhibitory concentration (IC50) below 50 nM.
Regarding `CCOC(=O)C1CCN(C(=O)c2cc3nccc(Oc4ccc(NC(=O)NC5CC5)cc4F)c3s2)CC1` [Compound 457], the half-maximal inhibitory concentration (IC50) is 50 to 100 nM.
